Results: the Kinase Knowledgebase extract (Sharma et al. 2016)

Target: ROCK1;ROCK2 (human) (UniProt O75116)
Test: Inhibition of ROCK1/ROCK2 Kinase Activity

Sequence of ROCK1;ROCK2 (human) (O75116 whole entry, looked up): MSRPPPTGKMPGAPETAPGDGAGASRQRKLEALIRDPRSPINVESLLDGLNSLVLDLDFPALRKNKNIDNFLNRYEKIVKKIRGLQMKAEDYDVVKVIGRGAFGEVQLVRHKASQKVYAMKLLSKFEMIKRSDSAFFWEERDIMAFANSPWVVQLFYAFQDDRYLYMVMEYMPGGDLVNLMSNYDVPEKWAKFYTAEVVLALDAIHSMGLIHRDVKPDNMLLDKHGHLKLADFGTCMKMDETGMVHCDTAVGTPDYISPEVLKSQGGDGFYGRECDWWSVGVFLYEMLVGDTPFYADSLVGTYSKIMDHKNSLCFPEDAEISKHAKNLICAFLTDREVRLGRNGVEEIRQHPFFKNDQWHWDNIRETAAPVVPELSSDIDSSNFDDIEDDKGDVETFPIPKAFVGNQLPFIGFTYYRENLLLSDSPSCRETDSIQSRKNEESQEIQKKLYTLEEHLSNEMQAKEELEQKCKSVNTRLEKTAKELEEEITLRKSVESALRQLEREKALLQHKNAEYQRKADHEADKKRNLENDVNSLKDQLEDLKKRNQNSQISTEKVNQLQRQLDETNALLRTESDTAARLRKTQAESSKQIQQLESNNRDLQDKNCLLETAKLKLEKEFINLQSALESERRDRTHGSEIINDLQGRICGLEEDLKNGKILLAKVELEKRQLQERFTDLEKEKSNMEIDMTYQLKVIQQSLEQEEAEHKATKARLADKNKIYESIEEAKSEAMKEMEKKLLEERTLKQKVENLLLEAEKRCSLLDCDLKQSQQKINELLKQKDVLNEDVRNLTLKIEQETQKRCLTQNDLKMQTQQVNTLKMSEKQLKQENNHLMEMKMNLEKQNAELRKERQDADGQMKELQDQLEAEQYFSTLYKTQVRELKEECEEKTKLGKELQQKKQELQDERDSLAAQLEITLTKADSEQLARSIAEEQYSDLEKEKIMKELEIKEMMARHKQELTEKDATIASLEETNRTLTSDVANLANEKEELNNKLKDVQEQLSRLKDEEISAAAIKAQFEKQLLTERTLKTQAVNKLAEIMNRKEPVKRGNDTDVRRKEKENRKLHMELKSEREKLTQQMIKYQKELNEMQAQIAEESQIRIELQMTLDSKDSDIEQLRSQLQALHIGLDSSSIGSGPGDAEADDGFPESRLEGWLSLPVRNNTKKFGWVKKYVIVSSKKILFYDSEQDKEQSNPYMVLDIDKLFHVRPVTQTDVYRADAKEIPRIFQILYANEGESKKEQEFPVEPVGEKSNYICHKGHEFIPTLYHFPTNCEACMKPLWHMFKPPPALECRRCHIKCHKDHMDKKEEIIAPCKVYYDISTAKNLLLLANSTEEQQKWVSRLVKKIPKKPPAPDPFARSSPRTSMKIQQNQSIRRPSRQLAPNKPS

| Compound | IC50 [nM] |
| --- | --- |
| CC(N)c1ccc(C(=O)Nc2ccncc2)cc1OCCCN (stereo unspecified) | 500 to 5000 |
| CC(N)c1ccc(C(=O)Nc2ccncc2)cc1-c1cccc(Cl)c1 (stereo unspecified) | < 50 |
| CC(N)c1ccc(C(=O)Nc2ccncc2)cc1NC(=S)Nc1ccccc1 (stereo unspecified) | 50 to 500 |
| CC(N)c1ccc(C(=O)Nc2ccncc2)cc1-c1cccs1 (stereo unspecified) | < 50 |
| CC(N)c1ccc(C(=O)Nc2ccncc2)cc1OCc1ccccc1 (stereo unspecified) | 50 to 500 |
| CC(N)c1ccc(C(=O)Nc2ccncc2)cc1N (stereo unspecified) | 500 to 5000 |
| CC(N)c1ccc(C(=O)Nc2ccncc2)cc1-c1ccc(F)cc1 (stereo unspecified) | < 50 |
| CC(N)c1ccc(C(=O)Nc2ccncc2)cc1NC(=O)c1ccc(Cl)cc1 (stereo unspecified) | 50 to 500 |
| COc1cccc(C(=O)Nc2cc(C(=O)Nc3ccncc3)ccc2C(C)N)c1 (stereo unspecified) | < 50 |
| CC(N)c1ccc(C(=O)Nc2ccncc2)cc1OCCO (stereo unspecified) | 500 to 5000 |
| CC(N)c1ccc(C(=O)Nc2ccncc2)cc1NC(=O)c1ccccc1 (stereo unspecified) | 50 to 500 |
| CC(N)c1ccc(C(=O)Nc2ccncc2)cc1NC(=O)c1cccc(Cl)c1 (stereo unspecified) | 50 to 500 |
| CC(N)c1ccc(C(=O)Nc2ccncc2)cc1OCCCO (stereo unspecified) | 500 to 5000 |
| CC(N)c1ccc(C(=O)Nc2ccncc2)cc1[N+](=O)[O-] (stereo unspecified) | 50 to 500 |
| COc1ccc(C(=O)Nc2cc(C(=O)Nc3ccncc3)ccc2C(C)N)cc1 (stereo unspecified) | < 50 |
| CC(N)c1ccc(C(=O)Nc2ccncc2)cc1-c1ccoc1 (stereo unspecified) | 50 to 500 |
| CC(N)c1ccc(C(=O)Nc2ccncc2)cc1NC(=O)c1ccco1 (stereo unspecified) | 50 to 500 |
| CC(N)c1ccc(C(=O)Nc2ccncc2)cc1O (stereo unspecified) | 500 to 5000 |
| CC(N)c1ccc(C(=O)Nc2ccncc2)cc1OCCN (stereo unspecified) | 500 to 5000 |
| CC(N)c1ccc(C(=O)Nc2ccncc2)cc1NC(=O)Nc1ccccc1 (stereo unspecified) | 50 to 500 |
| C[C@@H](N)c1ccc(C(=O)Nc2ccncc2)cc1-c1cccs1 | < 50 |
| CC(N)c1ccc(C(=O)Nc2ccncc2)cc1-c1ccc(Cl)cc1 (stereo unspecified) | < 50 |
| CC(N)c1ccc(C(=O)Nc2ccncc2)cc1-c1ccc2ccccc2c1 (stereo unspecified) | < 50 |
| CC(N)c1ccc(C(=O)Nc2ccncc2)cc1NCc1ccco1 (stereo unspecified) | 50 to 500 |
| C[C@H](N)c1ccc(C(=O)Nc2ccncc2)cc1-c1cccs1 | 50 to 500 |
| COc1ccc(-c2cc(C(=O)Nc3ccncc3)ccc2C(C)N)cc1 (stereo unspecified) | 50 to 500 |
